Data from patent publication US6518050B1, “Process for producing and extracting aromatic compounds” (Revico, priority 1998, dated 2003).

How the values were obtained:
Sporobolomyces odorus [1] = assay: Biomass production (OD at 620 nm) of S. odorus cultures on distilling slops with added precursor or additives; assay type: cell-based; details: for Biomass (OD at 620 nm): culture period of 77 hours; for OD at 620 nm: measured after 77 hours, 0 ml: 8.74; for OD620: HNCH 5 g/vial, culture period of 150 hours
Method: During these culture processes, performed in a liquid medium, temperature was held at 24° C. and stirring was at 250 rpm (revolutions per minute).
Time dependency of the amount of biomass produced during cultivation of this yeast, was tracked by measuring the optical density (OD) of the cell suspension at 620 nm. On the spectrophotometer, 0 was obtained with a sample of pure medium (baseline).
In order to test the effect of adding methyl ricinoleate to cultures of S. odorus on distilling slops exclusively, 1 ml of this precursor was added to cellular suspensions of 60 ml of 24 hours of age. […] Indeed, instead of a final concentration, after 77 hours, of 1.02 mg/l on distilling slops or of 6.47 mg/l when castor oil was added, we obtained concentrations of 28.23 mg/l (FIG. 8). […] So it would become rapidly a limiting factor in obtaining free ricinoleic acid from castor oil. Adding directly usable methyl ricinoleate overcomes this problem and lactone production yields are improved.
In order to optimize the added amount of methyl ricinoleate, we produced cultures to which we added after 24 hours either 0.83%, or 1.66%, or 10% (v/v) of methyl ricinoleate.
Additions of RM were performed at instants t=0, 24, 48 and 72 hours. These cultures were produced in 250 ml erlenmeyers containing 5 g of HNCH and 60 ml of sown distilling slops at an initial yeast cell density of 0.2 units of OD620 (optical density measured at 620 nm).
With the aim of increasing the productivity of the system by implementing an in situ extraction of γ-decalactone, two series of tests were conducted; one at an initial cell density of 0.2 (control), the other at an initial cell density of 4.

Sporobolomyces odorus [2] = assay: Toxicity of γ-decalactone: yeast growth kinetics on distilling slop medium containing lactone; assay type: cell-based
Method: Time dependency of the amount of biomass produced during cultivation of this yeast, was tracked by measuring the optical density (OD) of the cell suspension at 620 nm. On the spectrophotometer, 0 was obtained with a sample of pure medium (baseline). In order to determine whether γ-decalactone is toxic for cells, yeast growth kinetics on a distilling slop medium containing either 50 mg/l or 250 mg/l of lactone were obtained (FIG. 11). […] Beyond this point, a shift was observed. […] Indeed, the maximum achieved OD was 4 instead of 15 in the control. This same phenomenon was already observed by Ferron and al. (1996) who determined that the compatible dose with a non-zero cell growth rate is between 100 and 200 mg/l. This would partly explain why lactone concentrations of 250 to 300 mg/l were not exceeded under the retained experimental conditions.

| SMILES | Biomass (OD at 620 nm) (Sporobolomyces odorus [1]; 0.06% at t = 0 hrs + 0.83% at t = 24 hrs) | OD at 620 nm (Sporobolomyces odorus [1]; 0.5 ml RM added to 60 ml culture after 24 hours) | Biomass (OD at 620 nm) (Sporobolomyces odorus [1]; 0.83% v/v at t = 24 hrs) | OD at 620 nm (Sporobolomyces odorus [1]; 1 ml RM added to 60 ml culture after 24 hours) | biomass, OD (Sporobolomyces odorus [1]; 1 ml added to 60 ml cultures of 24 hours of age, after 77 hours, 14.0 on distilling slops exclusively) | OD620 (Sporobolomyces odorus [1]; 4×0.03, 0.06 or 0.12% (v/v) of precursor) | OD620 (Sporobolomyces odorus [1]; 4×0.18% (v/v) of precursor) | OD at 620 nm (Sporobolomyces odorus [1]; 6 ml RM added to 60 ml culture after 24 hours) | effect on the yeast's growth (Sporobolomyces odorus [2]; 50 mg/l lactone in distilling slop medium, first 50 hours of culture) | microorganism growth (Sporobolomyces odorus [2]; 250 mg of lactone in distilling slop medium) | maximum achieved OD (Sporobolomyces odorus [2]; 250 mg of lactone, control 15) | toxicity exerted on yeast above (concentration) (Sporobolomyces odorus [2]; statement in section C 1.1) | toxic effect observed beyond (concentration) (Sporobolomyces odorus [2]; summary statement of section 6) [mg/L] |
| --- | --- | --- | --- | --- | --- | --- | --- | --- | --- | --- | --- | --- | --- |
| CCCCCC[C@@H](O)C/C=C\CCCCCCCC(=O)OC [methyl ricinoleate] | 8.4 | 8.00 | 8.0 | 7.94 | 11.06 | 8 | 15 | 8.98 |  |  |  |  |  |
| CCCCCCC1CCC(=O)O1 (stereo not shown) [γ-decalactone] |  |  |  |  |  |  |  |  | did not affect the yeast's growth | significantly reduced | 4 | above 150 mg/l | > 250 |
